What all share (assay): PI3K enzyme inhibitory activity in the cell free assay (ADP-Glo Kinase Assay)
What all share (assay type): biochemical
(ADP-Glo turns the ADP formed in a reaction into a luminescent signal.)

For assay [1], the target named is T1, PI3Kβ (Homo sapiens, UniProt P42338).
T1 construct: purchased Millipore Ltd (Billerica, Mass.)
The settings on record: human recombinant PI3Kβ, ATP 100 μM; read-out: PI3K beta inhibition.

The target of assay [2] is T2, PI3Kδ (Homo sapiens, UniProt O00329).
T2 construct: purchased Millipore Ltd (Billerica, Mass.)
T2 sequence (O00329 1-1044): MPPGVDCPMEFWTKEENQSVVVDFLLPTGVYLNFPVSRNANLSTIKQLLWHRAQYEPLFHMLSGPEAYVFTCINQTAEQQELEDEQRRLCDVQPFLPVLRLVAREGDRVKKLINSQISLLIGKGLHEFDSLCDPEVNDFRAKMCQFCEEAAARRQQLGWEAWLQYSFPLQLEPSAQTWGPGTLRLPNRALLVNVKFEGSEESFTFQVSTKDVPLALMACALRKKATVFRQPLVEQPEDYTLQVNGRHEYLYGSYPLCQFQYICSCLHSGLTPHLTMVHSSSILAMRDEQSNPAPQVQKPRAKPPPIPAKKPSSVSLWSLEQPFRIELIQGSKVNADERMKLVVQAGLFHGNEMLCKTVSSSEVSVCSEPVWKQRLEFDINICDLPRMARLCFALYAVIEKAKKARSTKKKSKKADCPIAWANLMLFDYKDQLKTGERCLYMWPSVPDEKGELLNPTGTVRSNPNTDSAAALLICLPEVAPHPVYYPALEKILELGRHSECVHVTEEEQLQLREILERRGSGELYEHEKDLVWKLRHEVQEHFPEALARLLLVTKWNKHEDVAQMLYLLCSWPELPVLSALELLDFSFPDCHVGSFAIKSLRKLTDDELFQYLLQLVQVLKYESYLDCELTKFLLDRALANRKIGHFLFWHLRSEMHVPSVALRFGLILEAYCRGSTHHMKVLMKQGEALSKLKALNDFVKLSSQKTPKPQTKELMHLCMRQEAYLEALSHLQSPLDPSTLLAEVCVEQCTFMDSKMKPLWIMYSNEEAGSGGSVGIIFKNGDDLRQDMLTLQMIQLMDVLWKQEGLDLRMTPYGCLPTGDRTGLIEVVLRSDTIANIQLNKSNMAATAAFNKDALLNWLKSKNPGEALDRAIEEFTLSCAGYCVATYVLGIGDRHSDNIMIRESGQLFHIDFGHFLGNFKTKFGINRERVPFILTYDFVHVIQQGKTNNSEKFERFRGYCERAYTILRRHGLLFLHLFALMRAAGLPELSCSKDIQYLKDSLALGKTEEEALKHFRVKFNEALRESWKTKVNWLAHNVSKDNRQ
The settings on record: human recombinant PI3Kδ, ATP 80 μM; read-out: PI3K delta inhibition.

The target of assay [3] is T3, PI3Kγ (Homo sapiens, UniProt P48736).
T3 construct: purchased Millipore Ltd (Billerica, Mass.)
The settings on record: human recombinant PI3Kγ, ATP 30 μM; read-out: PI3K gamma inhibition.

The values that follow come from US9321776B2, “Isochromene derivatives as phoshoinositide 3-kinases inhibitors” (CHIESI FARMACEUTICI S.p.A., priority 2013, dated 2016).

pIC50: −log10 of the molar value. Counter-ions that a name gives are not always drawn.

T3 sequence (P48736 whole entry): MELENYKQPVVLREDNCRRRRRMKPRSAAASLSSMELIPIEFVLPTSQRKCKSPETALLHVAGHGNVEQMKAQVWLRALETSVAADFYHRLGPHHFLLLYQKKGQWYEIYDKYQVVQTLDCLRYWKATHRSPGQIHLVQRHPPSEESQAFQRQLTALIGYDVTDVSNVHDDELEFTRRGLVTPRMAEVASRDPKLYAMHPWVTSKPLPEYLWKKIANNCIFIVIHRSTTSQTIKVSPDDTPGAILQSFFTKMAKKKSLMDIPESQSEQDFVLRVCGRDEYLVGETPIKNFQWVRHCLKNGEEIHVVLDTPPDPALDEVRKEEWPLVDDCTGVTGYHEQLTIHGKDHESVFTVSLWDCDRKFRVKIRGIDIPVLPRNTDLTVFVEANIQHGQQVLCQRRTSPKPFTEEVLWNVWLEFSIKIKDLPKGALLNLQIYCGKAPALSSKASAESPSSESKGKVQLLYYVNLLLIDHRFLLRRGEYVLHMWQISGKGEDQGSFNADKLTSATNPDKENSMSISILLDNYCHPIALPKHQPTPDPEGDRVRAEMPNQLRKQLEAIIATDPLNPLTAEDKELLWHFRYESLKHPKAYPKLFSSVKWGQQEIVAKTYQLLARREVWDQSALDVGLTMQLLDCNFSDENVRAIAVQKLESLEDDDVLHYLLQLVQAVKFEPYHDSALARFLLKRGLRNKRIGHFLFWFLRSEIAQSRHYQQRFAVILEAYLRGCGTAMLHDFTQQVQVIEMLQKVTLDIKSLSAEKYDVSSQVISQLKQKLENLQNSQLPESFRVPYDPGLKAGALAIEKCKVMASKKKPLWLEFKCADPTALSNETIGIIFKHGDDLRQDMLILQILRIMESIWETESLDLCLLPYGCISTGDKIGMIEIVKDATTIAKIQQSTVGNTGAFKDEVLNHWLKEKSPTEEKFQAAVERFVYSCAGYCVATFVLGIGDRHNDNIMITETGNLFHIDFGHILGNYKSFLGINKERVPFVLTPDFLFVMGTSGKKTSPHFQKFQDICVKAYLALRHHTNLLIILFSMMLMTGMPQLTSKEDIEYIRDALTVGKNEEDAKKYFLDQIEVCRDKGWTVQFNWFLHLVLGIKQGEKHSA
T1 sequence (P42338 whole entry): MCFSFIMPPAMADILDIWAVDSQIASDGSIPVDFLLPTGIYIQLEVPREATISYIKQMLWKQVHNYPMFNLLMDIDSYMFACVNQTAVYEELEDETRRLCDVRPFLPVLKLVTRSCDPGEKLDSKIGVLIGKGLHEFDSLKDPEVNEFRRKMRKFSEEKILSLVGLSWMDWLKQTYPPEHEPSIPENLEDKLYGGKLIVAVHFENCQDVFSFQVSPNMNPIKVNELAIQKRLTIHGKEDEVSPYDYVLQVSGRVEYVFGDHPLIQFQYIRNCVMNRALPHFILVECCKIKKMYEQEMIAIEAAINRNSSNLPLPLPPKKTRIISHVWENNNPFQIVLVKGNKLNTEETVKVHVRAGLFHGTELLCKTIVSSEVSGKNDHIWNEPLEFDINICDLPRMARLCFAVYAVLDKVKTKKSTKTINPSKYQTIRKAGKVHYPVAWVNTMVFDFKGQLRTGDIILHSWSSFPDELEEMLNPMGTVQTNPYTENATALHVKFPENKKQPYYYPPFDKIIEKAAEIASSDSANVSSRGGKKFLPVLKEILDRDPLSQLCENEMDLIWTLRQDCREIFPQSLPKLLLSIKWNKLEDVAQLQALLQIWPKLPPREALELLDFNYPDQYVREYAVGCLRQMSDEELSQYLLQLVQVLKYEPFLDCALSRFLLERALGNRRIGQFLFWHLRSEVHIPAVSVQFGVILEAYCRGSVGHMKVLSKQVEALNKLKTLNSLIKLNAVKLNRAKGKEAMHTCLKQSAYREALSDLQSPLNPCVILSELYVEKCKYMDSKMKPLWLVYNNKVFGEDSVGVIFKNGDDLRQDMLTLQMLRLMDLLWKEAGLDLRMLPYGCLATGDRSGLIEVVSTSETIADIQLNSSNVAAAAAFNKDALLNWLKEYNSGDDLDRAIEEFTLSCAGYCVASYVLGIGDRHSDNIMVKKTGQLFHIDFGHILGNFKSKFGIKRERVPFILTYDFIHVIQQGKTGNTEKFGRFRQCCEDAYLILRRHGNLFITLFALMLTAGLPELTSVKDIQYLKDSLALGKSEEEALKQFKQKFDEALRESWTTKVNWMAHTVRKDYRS

With “4-(1-acetyl-1,2,3,6-tetrahydropyridin-4-yl)-3-(1-(4-amino-3-(3-fluoro-5-hydroxyphenyl)-1H-pyrazolo[3,4-d]pyrimidin-1-yl)ethyl)-1H-isochromen-1-one single enantiomer [Example 166b]”, the pIC50 in assay [1] was 6.00 to 8.00.

With `CC(c1oc(=O)c2ccccc2c1-c1ccc(CN2CCOCC2)s1)n1nc(-c2cc(O)cc(F)c2)c2c(N)ncnc21` (single isomer, unassigned) [Example 49b, 3-(1-(4-amino-3-(3-fluoro-5-hydroxyphenyl)-1H-pyrazolo[3,4-d]pyrimidin-1-yl)ethyl)-4-(5-(morpholinomethyl)thiophen-2-yl)-1H-isochromen-1-one hydrochloride], the pIC50 in assay [2] is 6.00 to 8.00; in assay [3], less than 6.00; in assay [1], less than 6.00.

On to `CC(c1oc(=O)c2ccccc2c1-c1cccc(CCCN(C)C)c1)n1nc(-c2cc(O)cc(F)c2)c2c(N)ncnc21` (single isomer, unassigned) [Example 137a, 3-(1-(4-amino-3-(3-fluoro-5-hydroxyphenyl)-1H-pyrazolo[3,4-d]pyrimidin-1-yl)ethyl)-4-(3-(3-(dimethylamino)propyl)phenyl)-1H-isochromen-1-one single enantiomers], for which the pIC50 was 6.00 to 8.00 in assay [2] and less than 6.00 in assay [1].

`Nc1ncnc2c1ncn2Cc1oc(=O)c2ccccc2c1-c1ccccc1` [Example 1, 3-((6-Amino-9H-1-purin-9-yl)methyl)-4-phenyl-1H-isochromen-1-one]: the pIC50 was 6.00 to 8.00 in assay [2], 6.00 to 8.00 in assay [3] and less than 6.00 in assay [1].

With `Nc1ncnc2c1ncn2Cc1oc(=O)c2ccccc2c1-c1cccc(F)c1` [Example 2, 3-((6-Amino-9H-purin-9-yl)methyl)-4-(3-fluorophenyl)-1H-isochromen-1-one], the pIC50 is 6.00 to 8.00 in assay [2], less than 6.00 in assay [3] and less than 6.00 in assay [1].

In the case of `Nc1ncnc2c1ncn2Cc1oc(=O)c2ccccc2c1-c1ccccc1F` [Example 3, 3-((6-Amino-9H-purin-9-yl)methyl)-4-(2-fluorophenyl)-1H-isochromen-1-one], the pIC50 was 6.00 to 8.00 in assay [2], less than 6.00 in assay [3] and less than 6.00 in assay [1].

On to `Cc1cccc(-c2c(Cn3cnc4c(N)ncnc43)oc(=O)c3ccccc23)c1` [Example 4, 3-((6-Amino-9H-purin-9-yl)methyl)-4-m-tolyl-1H-isochromen-1-one], for which the results for the pIC50 in assay [2], in assay [3] and in assay [1] were 6.00 to 8.00, less than 6.00 and less than 6.00, respectively.

On to `CC(c1oc(=O)c2ccccc2c1-c1cncs1)n1ncc2c(N)ncnc21` (centres unmarked) [Example 18, 3-(1-(4-Amino-1H-pyrazolo[3,4-d]pyrimidin-1-yl)ethyl)-4-(thiazol-5-yl)-1H-isochromen-1-one], for which the pIC50 in assay [2] was 6.00 to 8.00; in assay [3] it was less than 6.00; in assay [1] it was 6.00 to 8.00.

Regarding `CCC(Nc1ncnc2[nH]cnc12)c1oc(=O)c2ccccc2c1-c1ccccc1` (centres unmarked) [Example 25, 3-(1-(9H-Purin-6-ylamino)propyl)-4-phenyl-1H-isochromen-1-one], the pIC50 in assay [2] was greater than 8.00; in assay [3], 6.00 to 8.00; in assay [1] it was less than 6.00.

For the molecule `CC(Nc1ncnc2[nH]cnc12)c1oc(=O)c2ccccc2c1-c1ccc(CN2CCOCC2)s1` (centres unmarked) [Example 28, 3-(1-(9H-Purin-6-ylamino)ethyl)-4-(5-(morpholinomethyl)thiophen-2-yl)-1H-isochromen-1-one], the results for the pIC50 in assay [2], in assay [3] and in assay [1] were greater than 8.00, 6.00 to 8.00 and less than 6.00, respectively.

`O=c1oc(CNc2ncnc3[nH]cnc23)c(-c2ccccc2F)c2ccccc12` [Example 30, 3-((9H-Purin-6-ylamino)methyl)-4-(2-fluorophenyl)-1H-isochromen-1-one]: the figures for the pIC50 in assay [2], in assay [3] and in assay [1] were 6.00 to 8.00, 6.00 to 8.00 and less than 6.00, respectively.

With `CC(Nc1ncnc2[nH]cnc12)c1oc(=O)c2ccccc2c1-c1cccc(N(C)C)c1` (centres unmarked) [Example 34, 3-(1-(9H-Purin-6-ylamino)ethyl)-4-(3-(dimethylamino)phenyl)-1H-isochromen-1-one], the pIC50 in assay [2] was 6.00 to 8.00; in assay [3], 6.00 to 8.00; in assay [1] it was less than 6.00.

As to `Nc1ncnc2c1c(-c1cc(O)cc(F)c1)nn2Cc1oc(=O)c2ccccc2c1-c1ccccc1` [Example 35, 3-((4-Amino-3-(3-fluoro-5-hydroxyphenyl)-1H-pyrazolo[3,4-d]pyrimidin-1-yl)methyl)-4-phenyl-1H-isochromen-1-one], the results for the pIC50 in assay [2], in assay [3] and in assay [1] were greater than 8.00, 6.00 to 8.00 and less than 6.00, respectively.

Consider `Nc1ncnc2c1c(-c1ccc3[nH]ncc3c1)nn2Cc1oc(=O)c2ccccc2c1-c1ccccc1` [Example 36, 3-((4-Amino-3-(1H-indazol-5-yl)-1H-pyrazolo[3,4-d]pyrimidin-1-yl)methyl)-4-phenyl-1H-isochromen-1-one], for which the pIC50 in assay [2] was 6.00 to 8.00; in assay [3], 6.00 to 8.00; in assay [1], less than 6.00.

As for `Nc1ncnc2c1c(-c1ccc3cn[nH]c3c1)nn2Cc1oc(=O)c2ccccc2c1-c1ccccc1` [Example 38, 3-((4-Amino-3-(1H-indazol-6-yl)-1H-pyrazolo[3,4-d]pyrimidin-1-yl)methyl)-4-phenyl-1H-isochromen-1-one], the pIC50 in assay [2] is 6.00 to 8.00; in assay [3], 6.00 to 8.00; in assay [1], less than 6.00.

For the molecule `Nc1ncnc2c1c(-c1ccc(O)c(F)c1)nn2Cc1oc(=O)c2ccccc2c1-c1ccccc1` [Example 39, 3-((4-Amino-3-(3-fluoro-4-hydroxyphenyl)-1H-pyrazolo[3,4-d]pyrimidin-1-yl)methyl)-4-phenyl-1H-isochromen-1-one], the pIC50 in assay [2] was 6.00 to 8.00; in assay [3], 6.00 to 8.00; in assay [1], less than 6.00.

As for `CC(c1oc(=O)c2ccccc2c1-c1ccc(CN2CCCC2)s1)n1nc(-c2cc(O)cc(F)c2)c2c(N)ncnc21` (centres unmarked) [Example 73, 3-(1-(4-amino-3-(3-fluoro-5-hydroxyphenyl)-1H-pyrazolo[3,4-d]pyrimidin-1-yl)ethyl)-4-(5-(pyrrolidin-1-ylmethyl)thiophen-2-yl)-1H-isochromen-1-one hydrochloride], the pIC50 in assay [2] is greater than 8.00; in assay [3], less than 6.00; in assay [1] it was 6.00 to 8.00.

`CC(c1oc(=O)c2ccccc2c1-c1ccc(C(=O)O)s1)n1nc(-c2cc(O)cc(F)c2)c2c(N)ncnc21` (centres unmarked) [Example 78, 5-(3-(1-(4-amino-3-(3-fluoro-5-hydroxyphenyl)-1H-pyrazolo[3,4-d]pyrimidin-1-yl)ethyl)-1-oxo-1H-isochromen-4-yl)thiophene-2-carboxylic acid]: the pIC50 was greater than 8.00 in assay [2], 6.00 to 8.00 in assay [3] and less than 6.00 in assay [1].

On to `CC(Nc1ncnc(N)c1C#N)c1oc(=O)c2ccccc2c1-c1ccc(CN2CCOCC2)s1` (centres unmarked) [Example 82, 4-amino-6-((1-(4-(5-(morpholinomethyl)thiophen-2-yl)-1-oxo-1H-isochromen-3-yl)ethyl)amino)pyrimidine-5-carbonitrile hydrochloride], for which the pIC50 in assay [2] is greater than 8.00; in assay [3], 6.00 to 8.00; in assay [1], less than 6.00.

For `CC(c1oc(=O)c2ccccc2c1-c1ccccc1)n1nc(-c2cncc(N)c2)c2c(N)ncnc21` (centres unmarked) [Example 88, 3-(1-(4-amino-3-(5-aminopyridin-3-yl)-1H-pyrazolo[3,4-d]pyrimidin-1-yl)ethyl)-4-phenyl-1H-isochromen-1-one hydrochloride], the pIC50 was 6.00 to 8.00 in assay [2], less than 6.00 in assay [3] and 6.00 to 8.00 in assay [1].

With `CC(c1oc(=O)c2ccccc2c1-c1ccccc1)n1nc(C(F)(F)F)c2c(N)ncnc21` (centres unmarked) [Example 104, 3-(1-(4-amino-3-(trifluoromethyl)-1H-pyrazolo[3,4-d]pyrimidin-1-yl)ethyl)-4-phenyl-1H-isochromen-1-one], the values for the pIC50 in assay [2], in assay [3] and in assay [1] were 6.00 to 8.00, less than 6.00 and less than 6.00, respectively.

`CC(c1oc(=O)c2cc(Cl)ccc2c1-c1ccccc1)n1nc(-c2cc(O)cc(F)c2)c2c(N)ncnc21` (centres unmarked) [Example 163, 3-(1-(4-amino-3-(3-fluoro-5-hydroxyphenyl)-1H-pyrazolo[3,4-d]pyrimidin-1-yl)ethyl)-7-chloro-4-phenyl-1H-isochromen-1-one]: the pIC50 in assay [2] is 6.00 to 8.00; in assay [3], less than 6.00.
